{"source": "paper PMC5613635", "about": "(Biochemistry and Biophysics Reports, 2016)", "target": "T1, reconstituted TmAHAS (MI + MS) (Thermotoga maritima, UniProt Q9WZ18)", "T1 sequence (Q9WZ18 1-584)": "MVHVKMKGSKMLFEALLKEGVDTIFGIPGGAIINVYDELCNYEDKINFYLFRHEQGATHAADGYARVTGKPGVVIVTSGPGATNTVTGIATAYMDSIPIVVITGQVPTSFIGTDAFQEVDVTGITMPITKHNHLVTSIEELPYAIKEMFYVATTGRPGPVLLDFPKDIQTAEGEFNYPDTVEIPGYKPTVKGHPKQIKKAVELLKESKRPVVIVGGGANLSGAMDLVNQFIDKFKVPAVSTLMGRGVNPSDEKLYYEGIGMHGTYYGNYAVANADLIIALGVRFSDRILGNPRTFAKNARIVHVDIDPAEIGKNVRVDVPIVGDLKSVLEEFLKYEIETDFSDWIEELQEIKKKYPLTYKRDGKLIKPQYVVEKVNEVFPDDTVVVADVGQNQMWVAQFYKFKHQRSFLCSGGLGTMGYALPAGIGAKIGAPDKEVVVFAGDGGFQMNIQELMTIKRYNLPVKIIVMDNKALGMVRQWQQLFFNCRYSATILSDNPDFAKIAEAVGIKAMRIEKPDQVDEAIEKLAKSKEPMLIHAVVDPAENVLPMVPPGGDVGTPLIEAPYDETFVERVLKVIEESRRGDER", "T1 sequence (Q9WZ19 1-171 partner)": "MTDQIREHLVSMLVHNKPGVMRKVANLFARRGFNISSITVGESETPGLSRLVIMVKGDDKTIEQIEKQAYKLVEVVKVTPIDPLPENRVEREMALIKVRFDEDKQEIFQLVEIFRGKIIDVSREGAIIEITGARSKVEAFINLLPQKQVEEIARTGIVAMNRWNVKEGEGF", "assay": "acetaldehyde", "assay_type": "biochemical", "details": "reconstituted catalytic and regulatory subunits; 80 °C, anaerobic"}
{"compound": "CC(=O)C(=O)O", "note": "[pyruvate]", "values": [{"measurement": "acetaldehyde (PDC) and acetolactate (AHAS) production from pyruvate", "result": "The reconstitution of the enzyme TmAHAS resulted in considerable and reproducible increase of both PDC"}]}
